Patent publication US8586588B2, “Aryl pyridazinone derivatives and their use as H3 receptor ligands” (Cephalon, Inc., priority 2006, dated 2013)
“And” between values parts separate entries of the source, which are not always exact repeats. Equal values may be shown once. Read-outs that look alike come from different tables or passages of the source.

How the values were obtained:
[1] = target: T1, human H3 receptor (Homo sapiens, UniProt Q9Y5N1); experiment: Human H3 radioligand binding ([3H]-N-alpha-methylhistamine, CHO cell membranes, SPA); conditions: binding constant as letter class
T1 construct: expressed in transfected cells
T1 sequence (Q9Y5N1 whole entry): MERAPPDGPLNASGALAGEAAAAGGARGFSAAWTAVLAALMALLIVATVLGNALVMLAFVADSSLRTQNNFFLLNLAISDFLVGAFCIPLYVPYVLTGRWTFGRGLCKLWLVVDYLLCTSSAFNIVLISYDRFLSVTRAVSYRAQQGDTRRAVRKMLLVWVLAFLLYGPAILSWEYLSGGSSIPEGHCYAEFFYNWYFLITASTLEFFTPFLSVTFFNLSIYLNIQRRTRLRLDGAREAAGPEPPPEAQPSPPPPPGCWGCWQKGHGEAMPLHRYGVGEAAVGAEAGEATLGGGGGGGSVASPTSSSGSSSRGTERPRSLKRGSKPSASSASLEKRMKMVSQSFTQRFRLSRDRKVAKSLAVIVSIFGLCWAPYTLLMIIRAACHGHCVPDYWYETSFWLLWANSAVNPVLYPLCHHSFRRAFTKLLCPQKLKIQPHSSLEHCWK
How it was run: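 Scintillation proximity format: bead-proximal [3H]-N-alpha-methylhistamine (approximately 1 nM final) bound to human H3 receptor in CHO membranes was counted after 4 h at room temperature, light-protected. Buffer was pH 7.4 Tris/MgCl2/BSA; test compounds spanned 0.01 nM-30 μM; 10 μM clobenpropit set non-specific binding.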

[2] = target: T2, rat histamine H3 receptor (Rattus norvegicus, UniProt Q9QYN8); experiment: Rat H3 radioligand binding ([3H]-N-alpha-methylhistamine, CHO-A3 cell membranes, SPA)
T2 construct: encoding the entire 445-amino-acid rat histamine H3 receptor; expressed in transfected cells
T2 sequence (Q9QYN8 whole entry): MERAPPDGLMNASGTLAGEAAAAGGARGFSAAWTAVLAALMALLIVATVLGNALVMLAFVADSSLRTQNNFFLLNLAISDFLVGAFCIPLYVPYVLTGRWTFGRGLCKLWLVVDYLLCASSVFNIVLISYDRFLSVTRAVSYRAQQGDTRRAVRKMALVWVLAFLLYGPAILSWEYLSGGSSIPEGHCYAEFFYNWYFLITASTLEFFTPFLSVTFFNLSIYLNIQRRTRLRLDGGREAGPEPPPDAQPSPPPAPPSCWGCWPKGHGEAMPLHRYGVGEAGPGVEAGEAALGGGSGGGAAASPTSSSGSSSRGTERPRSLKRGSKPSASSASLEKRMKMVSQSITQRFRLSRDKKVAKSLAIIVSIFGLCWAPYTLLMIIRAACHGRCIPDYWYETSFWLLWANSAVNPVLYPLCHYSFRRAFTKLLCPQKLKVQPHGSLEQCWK
How it was run: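 Scintillation proximity displacement of about 1 nM [3H]-N-alpha-methylhistamine, test compound 0.01 nM-30 μM, 4 h, room temperature, in the dark. Receptor source: rat H3 stably transfected into CHO-A3 cells, 10 μg membrane protein, Tris-HCl pH 7.4/MgCl2/BSA buffer. Nonspecific binding defined by 10 μM clobenpropit.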

[3] = Table A, binding constant as letter class, read-out: Rat H3 Ki
[4] = Table B, binding constant as letter class, read-out: rat H3 Ki

Row | Ki ([1]; Table A) [nM] | Ki [2, 3] [nM] | Ki ([1]; Table B) [nM] | Ki [2, 4] | Ki ([2]; Table B, cell prints a number instead of a letter, read-out: rat H3 Ki) [nM] | SMILES
1 | 0.1 to 100 | 0.1 to 100 | – | – | – | C[C@@H]1CCCN1CCCOc1ccc(-c2ccc(=O)n(Cc3ccccc3)n2)cc1 [Example 18, 2-Benzyl-6-{4-[3-((R)-2-methyl-pyrrolidin-1-yl)-propoxy]-phenyl}-2H-pyridazin-3-one]
2 | 0.1 to 100 | 0.1 to 100 | – | – | – | Cc1cc(-c2ccc(OCCCN3CCCCC3)cc2)nn(C)c1=O [Example 39, 2,4-Dimethyl-6-[4-(3-piperidin-1-yl-propoxy)-phenyl]-2H-pyridazin-3-one]
3 | – | – | 0.1 to 100 | 0.1 to 100 nM | – | C[C@@H]1CCCN1CCCOc1ccc(C2=NNC(=O)CC2c2ccccn2)cc1 (stereo partly drawn) [Example 111, 6-{4-[3-((R)-2-Methyl-pyrrolidin-1-yl)-propoxy]-phenyl}-5-pyridin-2-yl-4,5-dihydro-2H-pyridazin-3-one]
4 | – | – | 0.1 to 100 | 0.1 to 100 nM | – | Cc1n[nH]c(=O)cc1-c1ccc(OC2CCN(C3CCC3)CC2)cc1 [Example 103, 5-[4-(1-Cyclobutyl-piperidin-4-yloxy)-phenyl]-6-methyl-2H-pyridazin-3-one]
5 | – | – | 0.1 to 100 | – | 5 | Cc1n[nH]c(=O)cc1-c1ccc(OCCCN2CCCCCC2)cc1 [Example 90, 5-[4-(3-Azepan-1-yl-propoxy)-phenyl]-6-methyl-2H-pyridazin-3-one]
6 | – | – | 0.1 to 100 | 0.1 to 100 nM | – | O=C1C2CC2C(c2ccc(OC3CCN(C4CCC4)CC3)cc2)=NN1c1ccc(F)cc1 (centres unmarked) [Example 253, 5-[4-(1-Cyclobutyl-piperidin-4-yloxy)-phenyl]-3-(4-fluoro-phenyl)-3,4-diaza-bicyclo[4.1.0]hept-4-en-2-one]
7 | 0.1 to 100 | 0.1 to 100 | – | – | – | C[C@H](COc1ccc(-c2ccc(=O)n(C)n2)cc1)CN1CCC[C@H]1C [Example 13, 2-Methyl-6-{4-[(S)-2-methyl-3-((R)-2-methyl-pyrrolidin-1-yl)-propoxy]-phenyl}-2H-pyridazin-3-one]
8 | 0.1 to 100 | 0.1 to 100 | – | – | – | C[C@@H]1CCCN1CCCOc1ccc(C2=NN(C)C(=O)C3CCCC23)cc1 (stereo partly drawn) [Example 58, 2-Methyl-4-{4-[3-((R)-2-methyl-pyrrolidin-1-yl)-propoxy]-phenyl}-2,4a,5,6,7,7a-hexahydro-cyclopenta[d]pyridazin-1-one]
9 | – | – | 0.1 to 100 | 0.1 to 100 nM | – | O=c1cc(-c2ccc(OCCCN3CCCCCC3)cc2)cnn1-c1ccccn1 [Example 96, 5-[4-(3-Azepan-1-yl-propoxy)-phenyl]-2-pyridin-2-yl-2H-pyridazin-3-one]
10 | – | – | 0.1 to 100 | 101 to 500 nM | – | Cc1ccc(=O)n(-c2ccc(OCCCN3CCC[C@H]3C)cc2)n1 [Example 201, 6-Methyl-2-{4-[3-((R)-2-methyl-pyrrolidin-1-yl)-propoxy]-phenyl}-2H-pyridazin-3-one]
11 | – | – | 0.1 to 100 | 0.1 to 100 nM | – | C[C@@H]1CCCN1CCCOc1ccc(-c2ccc(=O)n(-c3ccccn3)n2)cc1 [Example 215, 6-{4-[3-((R)-2-Methyl-pyrrolidin-1-yl)-propoxy]-phenyl}-2-pyridin-2-yl-2H-pyridazin-3-one]
12 | – | – | 0.1 to 100 | 501 to 1000 nM and 0.1 to 100 nM | – | Cn1nc(-c2ccc(OC3CCN(C4CCCC4)CC3)nc2)ccc1=O [Example 143, 6-[6-(1-Cyclopentyl-piperidin-4-yloxy)-pyridin-3-yl]-2-methyl-2H-pyridazin-3-one]
13 | 0.1 to 100 | 0.1 to 100 | – | – | – | CC(C)n1nc(-c2ccc(OCCCN3CCCCC3)cc2)ccc1=O [Example 3, 2-Isopropy1-6-[4-(3-piperidin-1-yl-propoxy)-pheny1]-2H-pyridazin-3-one]
14 | 0.1 to 100 | 0.1 to 100 | – | – | – | C[C@@H]1CCCN1CCCOc1ccc2c(c1)CCc1cc(=O)n(C)nc1-2 [Example 75, 2-Methyl-8-[3-((R)-2-methyl-pyrrolidin-1-yl)-propoxy]-5,6-dihydro-2H-benzo[h]cinnolin-3-one]
15 | 0.1 to 100 | 0.1 to 100 | – | – | – | Cn1nc(-c2ccc(OCCCN3CCCCC3)cc2)c(-c2ccccc2)cc1=O [Example 48, 2-Methyl-5-phenyl-6-[4-(3-piperidin-1-yl-propoxy)-phenyl]-2H-pyridazin-3-one]
16 | 0.1 to 100 | 0.1 to 100 | – | – | – | C[C@@H]1CCCN1CCCOc1ccc(C2=NN(c3ccccc3)C(=O)CC2)cc1 [Example 19]
17 | – | – | 0.1 to 100 | 0.1 to 100 nM | – | CC1CC(c2ccc(OCCCN3CCC[C@H]3C)cc2)=NNC1=O (stereo partly drawn) [Example 121, 4-Methyl-6-{4-[3-((R)-2-methyl-pyrrolidin-1-yl)-propoxy]-phenyl}-4,5-dihydro-2H-pyridazin-3-one]
18 | 0.1 to 100 | 0.1 to 100 | – | – | – | C[C@@H]1CCCN1CCCOc1ccc(-c2ccc(=O)n(-c3ccccc3)n2)cc1 [Example 20, 6-{4-[3-((R)-2-Methyl-pyrrolidin-1-yl)-propoxy]-phenyl}-2-phenyl-2H-pyridazin-3-one]
19 | – | – | 0.1 to 100 | 0.1 to 100 nM | – | O=c1ccc(-c2ccccc2)nn1-c1ccc(OC2CCN(C3CCC3)CC2)nc1 [Example 203, 2-[6-(1-Cyclobutyl-piperidin-4-yloxy)-pyridin-3-yl]-6-phenyl-2H-pyridazin-3-one]
